Reference: ChEMBL document CHEMBL1201862, “PubChem BioAssay data set” (2004)
The source made the active and inactive calls.

Columns and labels:
[1] = molecular target: T1, Carboxy-terminal domain RNA polymerase II polypeptide A small phosphatase 1 (Homo sapiens, UniProt Q9GZU7); experiment: inhibitors of CTDSP1, concentration-response testing, biochemical assay, absorbance-based, actives from ultra-high-throughput screening (AID 540297); type: functional
T1 sequence (Q9GZU7 whole entry): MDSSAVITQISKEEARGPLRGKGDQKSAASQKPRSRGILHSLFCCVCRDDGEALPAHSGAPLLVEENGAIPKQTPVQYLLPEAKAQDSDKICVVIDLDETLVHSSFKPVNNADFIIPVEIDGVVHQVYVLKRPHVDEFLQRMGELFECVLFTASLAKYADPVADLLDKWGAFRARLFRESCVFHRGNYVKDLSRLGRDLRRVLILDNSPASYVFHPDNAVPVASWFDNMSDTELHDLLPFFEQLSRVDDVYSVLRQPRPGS

[2] = molecular target: T2, High affinity choline transporter 1 (Homo sapiens, UniProt Q9GZV3); experiment: CHT inhibitors, dose response, cell-based, 5-point CRC, membrane potential dye (AID 504840); type: functional
T2 sequence (Q9GZV3 whole entry): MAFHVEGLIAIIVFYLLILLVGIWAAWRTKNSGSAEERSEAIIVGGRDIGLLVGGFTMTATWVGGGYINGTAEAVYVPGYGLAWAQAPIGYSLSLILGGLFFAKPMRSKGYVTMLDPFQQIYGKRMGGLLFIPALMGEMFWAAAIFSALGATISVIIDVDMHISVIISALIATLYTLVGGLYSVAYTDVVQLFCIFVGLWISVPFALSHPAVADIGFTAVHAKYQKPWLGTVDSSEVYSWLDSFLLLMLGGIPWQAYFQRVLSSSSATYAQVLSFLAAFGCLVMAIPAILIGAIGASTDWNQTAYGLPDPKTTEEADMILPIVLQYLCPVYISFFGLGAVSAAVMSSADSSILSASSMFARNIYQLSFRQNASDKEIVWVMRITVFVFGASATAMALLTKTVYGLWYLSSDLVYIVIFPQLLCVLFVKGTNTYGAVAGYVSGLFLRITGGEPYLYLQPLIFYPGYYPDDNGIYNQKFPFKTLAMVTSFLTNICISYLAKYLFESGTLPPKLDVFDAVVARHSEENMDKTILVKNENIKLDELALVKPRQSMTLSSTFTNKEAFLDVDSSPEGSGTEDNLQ

[3] = molecular target: T3, Corticotropin-releasing factor receptor 2/Corticotropin-releasing factor-binding protein (Homo sapiens, UniProt P24387+Q13324); experiment: activators of CRF receptor 2 with binding protein – uHTS hits, confirmation (AID 602473); type: functional; details: read-out: EC50_Mean
T3 sequence (Q13324 whole entry): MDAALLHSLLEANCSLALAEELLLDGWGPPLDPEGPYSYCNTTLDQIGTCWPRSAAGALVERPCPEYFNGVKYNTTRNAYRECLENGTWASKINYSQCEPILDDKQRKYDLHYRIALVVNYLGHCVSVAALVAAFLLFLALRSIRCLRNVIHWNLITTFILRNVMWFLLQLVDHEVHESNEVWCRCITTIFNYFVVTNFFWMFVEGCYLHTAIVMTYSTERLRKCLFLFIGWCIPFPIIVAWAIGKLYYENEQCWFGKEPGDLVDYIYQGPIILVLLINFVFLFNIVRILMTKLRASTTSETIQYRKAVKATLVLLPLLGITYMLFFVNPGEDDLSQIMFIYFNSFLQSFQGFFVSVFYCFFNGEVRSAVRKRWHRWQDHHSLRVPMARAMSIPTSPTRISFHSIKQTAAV
T3 sequence (P24387 whole entry): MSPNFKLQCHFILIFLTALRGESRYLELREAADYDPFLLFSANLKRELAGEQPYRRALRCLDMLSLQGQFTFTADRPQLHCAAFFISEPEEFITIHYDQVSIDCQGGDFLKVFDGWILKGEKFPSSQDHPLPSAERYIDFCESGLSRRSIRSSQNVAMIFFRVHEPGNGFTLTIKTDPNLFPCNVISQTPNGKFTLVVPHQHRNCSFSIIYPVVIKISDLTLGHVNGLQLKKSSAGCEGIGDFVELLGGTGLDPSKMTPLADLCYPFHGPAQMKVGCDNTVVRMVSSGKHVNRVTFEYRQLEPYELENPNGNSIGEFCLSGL

[4] = inhibitors of clade B AD8 Env fusion, dose response, cell-based, cherry-pick (AID 652062); type: functional;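 further: luciferase signal from cell-cell fusion driven by HIV-1 clade B AD8 Env; potency is for inhibitors of fusion seen as a drop in luminescence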
[5] = inhibitors of HIV Env-driven cell fusion, dose response, cherry-pick (AID 652057); type: functional, cell-based
[6] = ZM109 Env clade C HIV-1 fusion inhibitors, dose response, HeLa effector, CEM target cells, luciferase, cherry-pick (AID 652058); type: functional, cell-based
cells [7] = type: functional, cell-based
cells [8] = type: functional, cell-based; remark: listed apart in the source
[9] = HepG2 cell cytotoxicity, dose response, cytotoxicity control for Shn3 inhibitor project, CellTiter-Glo, cherry-picked (AID 624134); type: functional, cell-based
INS1 = experiment: beta cell apoptosis inhibitors, cytokine rescue, dose response, luminescence, retest (AID 449756); type: functional, cell-based; details: Rattus norvegicus;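 further: cell death triggered by IL-1 beta plus TNF-alpha plus IFN-gamma mixture; protective hits raise ATP signal compared with cytokine alone wells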
[10] = Shn3 3'UTR reporter inhibitors, dose response, cell-based, Clone20 osteoblasts, firefly luciferase, cherry-picked (AID 624132); type: functional;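 further: firefly luciferase luminescence from reporter carrying the Shn3 3'UTR in osteoblasts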
[11] = molecular target: T4, Polyadenylate-binding protein 1 (Homo sapiens, UniProt P11940); experiment: PABP1 MLLE–PAM2 interaction inhibitors, dose response, miRNA deadenylation inhibitor project, biochemical, fluorescence polarization, Cy5-PAM2 peptide, secondary (AID 602260); type: functional; details: read-out: IC50_Mean
T4 sequence (P11940 whole entry): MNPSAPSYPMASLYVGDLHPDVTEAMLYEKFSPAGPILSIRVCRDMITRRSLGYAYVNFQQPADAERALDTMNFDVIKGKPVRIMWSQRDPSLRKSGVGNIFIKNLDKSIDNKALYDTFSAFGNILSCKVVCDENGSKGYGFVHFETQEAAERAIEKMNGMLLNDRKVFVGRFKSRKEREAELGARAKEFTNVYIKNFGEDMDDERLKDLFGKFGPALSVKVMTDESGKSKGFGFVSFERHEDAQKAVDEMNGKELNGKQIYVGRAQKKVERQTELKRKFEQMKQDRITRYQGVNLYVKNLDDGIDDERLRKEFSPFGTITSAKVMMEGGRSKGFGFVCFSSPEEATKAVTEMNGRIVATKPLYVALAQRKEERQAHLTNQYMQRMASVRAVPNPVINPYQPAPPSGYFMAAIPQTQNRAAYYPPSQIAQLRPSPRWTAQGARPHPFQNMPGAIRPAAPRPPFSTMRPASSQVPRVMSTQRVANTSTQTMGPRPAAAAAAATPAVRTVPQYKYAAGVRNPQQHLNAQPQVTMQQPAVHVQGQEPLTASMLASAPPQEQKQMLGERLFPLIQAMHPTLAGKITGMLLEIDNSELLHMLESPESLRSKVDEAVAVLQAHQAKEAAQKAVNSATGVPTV

[12] = molecular target: T4, Polyadenylate-binding protein 1; experiment: PABP1 MLLE–PAM2 binding inhibitor potency, dose response, biochemical, fluorescence polarization, FITC-PAM2 peptide (AID 602259); type: functional; details: read-out: IC50_Mean
[13] = control 3'UTR Renilla luciferase suppression, dose response, counter-screen for Shn3 inhibitor project, cell-based, Clone20-Shn3RL, cherry-picked (AID 624133); type: functional
[14] = microbe, parasite or virus in culture; type: functional; details: Mycobacterium tuberculosis
Protein RecA = molecular target: T5, Protein RecA (Mycobacterium tuberculosis, UniProt P9WHJ3); experiment: Fluorescence Cell-Free Homogeneous Dose Retest to Identify Inhibitors of RecA-Intein Splicing Activity. [Related pubchem assays (depositor defined):AID2097, AID2223, AID489010, AID492950]; type: functional
T5 sequence (P9WHJ3 whole entry): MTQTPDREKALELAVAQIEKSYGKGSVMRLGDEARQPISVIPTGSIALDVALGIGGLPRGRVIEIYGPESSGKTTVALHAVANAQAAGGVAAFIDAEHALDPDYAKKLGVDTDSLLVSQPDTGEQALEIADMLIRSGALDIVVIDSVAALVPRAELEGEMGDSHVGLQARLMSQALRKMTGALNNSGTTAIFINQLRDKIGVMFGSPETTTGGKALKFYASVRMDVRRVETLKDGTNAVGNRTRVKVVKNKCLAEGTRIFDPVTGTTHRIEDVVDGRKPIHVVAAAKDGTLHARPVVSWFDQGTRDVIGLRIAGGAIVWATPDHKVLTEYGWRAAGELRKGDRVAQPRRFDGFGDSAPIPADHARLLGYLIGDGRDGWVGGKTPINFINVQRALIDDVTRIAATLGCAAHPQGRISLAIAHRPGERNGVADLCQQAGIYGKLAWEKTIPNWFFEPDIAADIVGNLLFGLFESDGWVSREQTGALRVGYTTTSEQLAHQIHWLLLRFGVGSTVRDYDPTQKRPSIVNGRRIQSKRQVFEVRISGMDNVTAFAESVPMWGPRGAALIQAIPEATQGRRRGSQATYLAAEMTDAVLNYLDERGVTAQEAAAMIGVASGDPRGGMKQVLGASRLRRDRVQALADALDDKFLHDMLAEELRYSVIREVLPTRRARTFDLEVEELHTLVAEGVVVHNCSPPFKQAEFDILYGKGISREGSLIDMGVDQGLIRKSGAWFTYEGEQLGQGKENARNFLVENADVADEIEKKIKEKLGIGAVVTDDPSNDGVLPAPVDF

[15] = molecular target: T6, Replicative DNA helicase DnaB (Mycobacterium tuberculosis, UniProt P9WMR3); experiment: DnaB intein splicing inhibitors, dose response, biochemical, cell-free fluorescence (AID 449749); type: functional
T6 sequence (P9WMR3 whole entry): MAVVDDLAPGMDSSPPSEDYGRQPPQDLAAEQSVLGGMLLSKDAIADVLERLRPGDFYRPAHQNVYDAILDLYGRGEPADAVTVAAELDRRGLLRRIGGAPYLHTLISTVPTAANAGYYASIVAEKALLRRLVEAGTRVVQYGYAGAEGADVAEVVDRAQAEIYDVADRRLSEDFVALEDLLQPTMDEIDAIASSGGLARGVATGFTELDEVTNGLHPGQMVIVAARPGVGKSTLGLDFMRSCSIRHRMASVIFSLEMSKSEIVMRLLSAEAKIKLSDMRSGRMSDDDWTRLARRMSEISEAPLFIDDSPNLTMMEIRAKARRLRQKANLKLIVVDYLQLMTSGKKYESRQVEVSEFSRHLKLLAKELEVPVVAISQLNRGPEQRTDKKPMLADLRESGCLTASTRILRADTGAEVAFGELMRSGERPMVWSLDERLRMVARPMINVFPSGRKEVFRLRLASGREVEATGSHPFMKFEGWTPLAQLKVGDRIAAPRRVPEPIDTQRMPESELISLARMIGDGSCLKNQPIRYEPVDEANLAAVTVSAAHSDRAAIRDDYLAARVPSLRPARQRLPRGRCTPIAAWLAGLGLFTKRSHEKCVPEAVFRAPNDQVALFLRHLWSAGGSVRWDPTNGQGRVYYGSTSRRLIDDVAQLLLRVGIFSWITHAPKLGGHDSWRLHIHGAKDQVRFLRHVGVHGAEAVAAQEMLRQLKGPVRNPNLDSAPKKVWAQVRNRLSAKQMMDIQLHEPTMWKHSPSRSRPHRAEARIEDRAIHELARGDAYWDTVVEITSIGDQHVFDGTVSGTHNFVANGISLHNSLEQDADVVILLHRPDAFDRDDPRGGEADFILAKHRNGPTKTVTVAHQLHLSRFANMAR

In the case of COc1ccc(NC(=O)NNC(=O)c2ccc(-c3ccccc3)cc2)cc1, the IC50 [1] is reported as 4.6 µM (active).
In the case of O=C(Nc1cccc(S(=O)(=O)NC2=NCCC2)c1)c1cc(Cl)ccc1[N+](=O)[O-], the IC50 [2] is reported as 11.8 µM (active).
For CCOc1ccc(NC(=O)CN2C(=O)NC(C)(c3ccc(OC(F)F)cc3)C2=O)cc1 (centres undefined), the EC50 [3] was 13.2 µM (active).
With CC1CCN(S(=O)(=O)c2ccc3c(c2)c(=O)c(C(=O)NC2CCCC2)cn3C)CC1 the IC50 [2] was 12 µM (active).
For C[C@@H]1CN([C@@H](C)CO)C(=O)c2cccc(NS(=O)(=O)c3ccccc3)c2O[C@@H]1CN(C)Cc1ccc(Cl)c(Cl)c1, the AC50 [4] was 3.86 µM (active), the AC50 [5] was 2.93 µM (active) and the AC50 [6] was 4.27 µM (active).
In the case of Cc1ccc(S(=O)(=O)N2CCCCC2)cc1C(=O)Nc1cccnc1, the IC50 [1] is reported as 9.14 µM (active).
For COc1cc(C(=O)N2CCN(C(=O)Cc3ccccc3)CC2)cc(OC)c1OC, the EC50 (cells [7]) was > 350 µM (not active) and the EC50 (cells [8]) was > 350 µM (not active).
For CCOc1cc(C)c(S(=O)(=O)Nc2ccc3c[nH]nc3c2)cc1C, the AC50 [9] was 36 µM (active), the AC50 (INS1) was 4.13 µM (active) and the AC50 [10] was 4.89 µM (active).
With COc1ccc(N2C(=O)[C@@H]3C(c4cccnc4)=NO[C@@H]3C2=O)cc1 the EC50 (cells [7]) was > 350 µM (not active) and the EC50 (cells [8]) was > 350 µM (not active).
With CN1C(=O)SC(Nc2ccccc2C(=O)O)C1=O (centres undefined) the IC50 [11] was > 66 µM (inactive) and the IC50 [12] was > 66 µM (inactive).
In the case of COc1cccc(CNc2nc(NCC3CC3)nc3ccsc23)c1, the AC50 [9] is reported as 43 µM (active), the AC50 [13] is reported as 11.2 µM (active) and the AC50 [10] is reported as 5.86 µM (active).
In the case of Nc1ccc2cccc(O)c2c1, the IC50 [1] is reported as 4.61 µM (active).
With CCCCC(O)(CCCC)C(=O)NN(C(=O)CCl)c1ccccc1 the CC50 [14] was 12.1 µM (active), the EC50 (Protein RecA) was 2.45 µM (active) and the AC50 [15] was 15 µM (active).
